Test results: patent US20240382435A1, “NON-CERULOPLASMIN BOUND COPPER LEVEL MONITORING” (ORPHALAN S.A., priority 2021, published 2024)

Assays:
[1] = system: patients with Wilson's Disease; assay: Serum NCC by copper speciation assay, randomized open-label clinical study (Example 3); type: in vivo, human
Method: 1.95 mL of rhodium internal standard solution containing 1% TMAH/1% EDTA was combined with 50 μL of human serum in a 15 mL polypropylene tube, capped and rotary mixed for at least 30 minutes. The processed sample was then analysed by ICP-MS on an Agilent 7900x inductively coupled plasma mass spectrometer.
The samples were defrosted and equilibrated to room temperature prior to use, and vortex mixed for approximately 5 seconds. 80 μL of 50 mM Tris-HCl (pH 7.4) buffer solution was combined with 20 μL of the clinical sample, blank or reference standard in a 0.5 mL Eppendorf tube (protein low bind). The diluted sample (100 μL) was transferred to a 0.3 mL polypropylene LC vial and sealed with a screw cap. An aliquot (50 μL) of each processed sample was then analysed by LC-ICP-MS on an Agilent 8900x inductively coupled plasma mass spectrometer.
Speciation analysis of Cu-containing species in the serum samples was performed by an anion exchange high performance liquid chromatography (AE HPLC) column (GE Healthcare MonoQ 5/50 GL, stationary phase (10 μm; 5×50 mm)) with an ammonium acetate gradient (0-250 mM) for 20 min. A flow rate of 1.0 mL/min was used. The chromatographic separation was performed at 25° C. Detection of the eluting Cu species was achieved using a collision/reaction cell Agilent Technologies 8900x ICP-MS spectrometer. The isotopes 63Cu and 65Cu were monitored in time resolved mode analysis using an integration time of 0.3 sec. 63Cu is the most abundant isotope and therefore this isotope was used to quantify copper by LC-ICP-MS.
Efficacy was assessed and treatments were monitored primarily using total copper analysis and a copper speciation assay as outlined in Examples 1 and 2 to determine serum NCC levels.
Eligible patients were clinically stable with their standard of-care D penicillamine chelation therapy for at least 1 year. These patients entered a 12-Week Penicillamine Baseline Period (from study visits on Day 1 to Week 12). During this time, all patients continued their current D penicillamine regimen under study conditions. At the end of the Penicillamine Baseline Period, patients who fulfilled the protocol definition of being adequately controlled and tolerating D penicillamine were randomized in a 1:1 ratio to receive either TETA 4HCl or to continue to receive D penicillamine during a 24-Week Post-Randomization Period (from study visits Week 12 to Week 36).
The primary efficacy endpoint was the serum NCC concentration (in μg/L) at Week 36. Serum NCC concentrations were determined using a copper speciation serum NCC assay using the methodology outlined in Examples 1 and 2. The primary efficacy analysis utilized the serum NCC values from all study visits that were analyzed using a restricted maximum likelihood based general linear model for correlated data. The correlation due to repeated measures was modelled by specifying the variance covariance matrix.

[2] = system: patients with Wilson's Disease; assay: 24-hour urinary copper excretion (UCE), clinical study of Example 3; type: in vivo, human; settings: for 24-hour UCE value, mean / 24-hour UCE value, median / 24-hour UCE change from baseline, mean / 24-hour UCE change from baseline, median: ITT
Method: The number and the proportion of patients with a serum NCC value that matched the threshold (eg, serum NCC≤50 μg/L) were presented along with the 95% confidence interval of the proportion by visit and treatment arm. The proportions in the 2 arms were compared using Fisher's exact test. The same approach was applied on 24-hour UCE.

[3] = system: patients with Wilson's Disease; assay: Clinical Global Impression of Change (CGIC) rating scale, clinical study of Example 3; type: in vivo, human; parameters: key: 7-point ordinal CGIC scale, 4 = no change; settings: 7-point scale, ITT
Excerpt: The CGIC rating scale, a 7-point ordinal score, was summarized by visit and treatment arm, and compared between arms using a stratified Cochran-Mantel-Haenszel test. The UWDRS, a continuous measure, was summarized by visit and treatment arm with descriptive statistics for absolute values and the changes from baseline.

[4] = system: patients with Wilson's Disease; assay: Baseline ALT, clinical study of Example 3; settings: human, in vivo
Excerpt: For change from baseline in laboratory measurements, “baseline” was defined as the last non-missing value during the Penicillamine Baseline Period, including unscheduled values.

[5] = Day 1, 12-Week Penicillamine Baseline Period (all patients on D-penicillamine), ITT population, by arm
[6] = Week 4, Penicillamine Baseline Period (all patients on D-penicillamine), ITT
[7] = Week 8, Penicillamine Baseline Period (all patients on D-penicillamine), ITT
[8] = Week 12 (randomization), end of Penicillamine Baseline Period, ITT
[9] = Week 16, Post-Randomization Period, ITT
[10] = Week 20, Post-Randomization Period, ITT
[11] = Week 24, Post-Randomization Period, ITT
[12] = Week 28, Post-Randomization Period, ITT
[13] = Week 32, Post-Randomization Period, ITT
[14] = Week 36, Post-Randomization Period, ITT
[15] = Day 1, 12-Week Penicillamine Baseline Period (all patients on D-penicillamine), by arm
[16] = Week 4, Penicillamine Baseline Period (all patients on D-penicillamine)
[17] = Week 12 (randomization), end of Penicillamine Baseline Period
[18] = Week 16, 24-Week Post-Baseline Period
[19] = Week 24, 24-Week Post-Baseline Period
[20] = Week 36, 24-Week Post-Baseline Period
[21] = Week 12, Penicillamine Baseline Period
[22] = Week 16, Post-Randomization Period
[23] = Week 24, Post-Randomization Period
[24] = Week 36, Post-Randomization Period

Question: Which results are given for `CC(C)(S)[C@@H](N)C(=O)O` [D-Penicillamine, D-penicillamine]?
Answer: serum NCC value, mean [1, 5]: 63.9 µg/L; serum NCC value, median [1, 5]: 61.0 µg/L; serum NCC value, mean [1, 6]: 59.4 µg/L; serum NCC value, median [1, 6]: 58.4 µg/L; serum NCC value, mean [1, 7]: 71.9 µg/L; serum NCC value, median [1, 7]: 69.0 µg/L; serum NCC value, mean [1, 8]: 84.4 µg/L; serum NCC value, median [1, 8]: 83.0 µg/L; serum NCC value, mean ([1]; Week 16, 24-Week Post-Randomization Period, ITT): 82.8 µg/L; serum NCC change from baseline, mean [1, 9]: -2.1 µg/L; serum NCC change from baseline, median [1, 9]: 0.0 µg/L; serum NCC value, median [1, 9]: 77.5 µg/L; serum NCC change from baseline, mean [1, 10]: -12.3 µg/L; serum NCC change from baseline, median [1, 10]: -11.6 µg/L; serum NCC value, mean [1, 10]: 73.3 µg/L; serum NCC value, median [1, 10]: 75.5 µg/L; serum NCC change from baseline, mean [1, 11]: -16.9 µg/L; serum NCC change from baseline, median [1, 11]: -20.0 µg/L; serum NCC value, mean [1, 11]: 66.3 µg/L; serum NCC value, median [1, 11]: 64.0 µg/L; serum NCC change from baseline, mean [1, 12]: -10.6 µg/L; serum NCC change from baseline, median [1, 12]: -17.5 µg/L; serum NCC value, mean [1, 12]: 73.1 µg/L; serum NCC value, median [1, 12]: 65.1 µg/L; serum NCC change from baseline, mean [1, 13]: -19.1 µg/L; serum NCC change from baseline, median [1, 13]: -21.7 µg/L; serum NCC value, mean [1, 13]: 64.6 µg/L; serum NCC value, median [1, 13]: 62.0 µg/L; serum NCC value, mean ([1]; Week 36 (primary efficacy endpoint), Post-Randomization Period, ITT): 53.4 µg/L; serum NCC change from baseline, mean [1, 14]: -29.7 µg/L; serum NCC change from baseline, median [1, 14]: -34.0 µg/L; serum NCC value, median [1, 14]: 51.0 µg/L; serum NCC levels, comparison between arms ([1]; copper speciation assay, Table 4): very similar; 24-hour UCE value, mean [2, 15]: 568.3 μg/24 hours; 24-hour UCE value, median [2, 15]: 478.8 μg/24 hours; 24-hour UCE value, mean [2, 16]: 551.5 μg/24 hours; 24-hour UCE value, median [2, 16]: 594.6 μg/24 hours; 24-hour UCE value, mean [2, 17]: 539.1 μg/24 hours; 24-hour UCE value, median [2, 17]: 496.0 μg/24 hours; 24-hour UCE change from baseline, mean [2, 18]: −26.8 μg/24 hours; 24-hour UCE change from baseline, median [2, 18]: −60.3 μg/24 hours; 24-hour UCE value, mean [2, 18]: 512.1 μg/24 hours; 24-hour UCE value, median [2, 18]: 501.4 μg/24 hours; 24-hour UCE change from baseline, mean [2, 19]: 37.9 μg/24 hours; 24-hour UCE change from baseline, median [2, 19]: 23.4 μg/24 hours; 24-hour UCE value, mean [2, 19]: 546.8 μg/24 hours; 24-hour UCE value, median [2, 19]: 495.3 μg/24 hours; 24-hour UCE change from baseline, mean [2, 20]: 4.9 μg/24 hours; 24-hour UCE change from baseline, median [2, 20]: −4.7 μg/24 hours; 24-hour UCE value, mean [2, 20]: 519.7 μg/24 hours; 24-hour UCE value, median [2, 20]: 536.9 μg/24 hours; 24-hour UCE, comparison between treatment arms ([2]; all time points analyzed after randomization, statistically significant differences): higher levels of copper excretion; Clinical Global Impression of Change Scale, mean ([3]; Week 4, Penicillamine Baseline Period (all patients on D-penicillamine), 4 = no change): 4.1; Clinical Global Impression of Change Scale, median [3, 16]: 4.0; Clinical Global Impression of Change Scale, mean [3, 21]: 3.9; Clinical Global Impression of Change Scale, median [3, 21]: 4.0; Clinical Global Impression of Change Scale, mean [3, 22]: 4.1; Clinical Global Impression of Change Scale, median [3, 22]: 4.0; Clinical Global Impression of Change Scale, mean [3, 23]: 4.0; Clinical Global Impression of Change Scale, median [3, 23]: 4.0; Clinical Global Impression of Change Scale, mean [3, 24]: 4.0; Clinical Global Impression of Change Scale, median [3, 24]: 4.0; ALT, mean baseline [4]: 35.6 U/L
